Measured values as given in patent US20250195530A1, “POLQ INHIBITORS” (ASTRAZENECA AB, priority 2022, published 2025).

Tests used:
DLD-1 BRCA2−/− cells = assay: Homologous recombination synthetic lethal inhibition of proliferation, DLD-1 BRCA2-/- (Cell Titre Glo 3D); format: cell-based; conditions: Homo sapiens, DLD-1, proliferation, luminescence, taken as DLD-1 BRCA2-/-; read-out: POLQ PD Prolif Lumin (converted)
Procedure, shortened: (§1)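 Cells are seeded in RPMI 1640 (phenol red free, 10% FBS, GlutaMAX) onto pre-dosed compound (10 μM to 0.51 nM, three-fold). Plates are incubated at 37 °C, and medium plus compound are refreshed on day 6. Viability is read by CellTiter-Glo 3D at day 7 (DLD-1) or day 12 (DLD-1 BRCA2−/−), and the IC50 is fitted.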

DLD-1 cells = assay: Inhibition of proliferation, DLD-1 BRCA2 wt control (Cell Titre Glo 3D); format: cell-based; conditions: Homo sapiens, DLD-1, proliferation, luminescence; second Prolif column (c6), taken as DLD-1 BRCA2 wt control; read-out: POLQ PD Prolif Lumin (converted)
Procedure, shortened: as §1

SMILES: Cc1cnc(Cn2c(-c3ccc(OCCN4CCNC[C@@H]4C)cc3Cl)nc3c(OC4(C)CC4)ncnc32)s1 [Example T393, (S)-2-((8-(2-chloro-4-(2-(2-methylpiperazin-1-yl)ethoxy)phenyl)-6-(1-methylcyclopropoxy)-9H-purin-9-yl)methyl)-5-methylthiazole]
- IC50 (DLD-1 BRCA2−/− cells): 794 nM
- IC50 (DLD-1 cells): > 10000 nM

SMILES: C[C@H](CCOc1ccc(-c2nc3c(OC4(C)CC4)ncnc3n2Cc2cccc(C#N)c2)c(Cl)c1)C(=O)O [Example T401, (R)-4-(3-chloro-4-(9-(3-cyanobenzyl)-6-(1-methylcyclopropoxy)-9H-purin-8-yl)phenoxy)-2-methylbutanoic acid]
- IC50 (DLD-1 BRCA2−/− cells): 398 nM
- IC50 (DLD-1 cells): > 10000 nM

SMILES: C[C@H](CCOc1ccc(-c2nc3c(OC4(C)CC4)ncnc3n2Cc2ccccc2C#N)c(Cl)c1)C(=O)O [Example T402, (R)-4-(3-chloro-4-(9-(2-cyanobenzyl)-6-(1-methylcyclopropoxy)-9H-purin-8-yl)phenoxy)-2-methylbutanoic acid]
- IC50 (DLD-1 BRCA2−/− cells): 398 nM
- IC50 (DLD-1 cells): > 10000 nM

SMILES: C[C@@H](CCOc1ccc(-c2nc3c(OC4(C)CC4)ncnc3n2Cc2ccccc2C#N)c(Cl)c1)C(=O)O [Example T403, (S)-4-(3-chloro-4-(9-(2-cyanobenzyl)-6-(1-methylcyclopropoxy)-9H-purin-8-yl)phenoxy)-2-methylbutanoic acid]
- IC50 (DLD-1 BRCA2−/− cells): 398 nM
- IC50 (DLD-1 cells): > 10000 nM

SMILES: CC1(Oc2cccc3c2nc(-c2ccc(OCCC(=O)O)cc2Cl)n3Cc2cccc(Cl)c2)CCC1 [Example T406, 3-(3-chloro-4-(1-(3-chlorobenzyl)-4-(1-methylcyclobutoxy)-1H-benzo[d]imidazol-2-yl)phenoxy)propanoic acid]
- IC50 (DLD-1 BRCA2−/− cells): 2000 nM
- IC50 (DLD-1 cells): > 10000 nM

SMILES: CC1(Oc2ncnc3c2nc(-c2ccc(OCCC4(C(=O)O)CC4)cc2Cl)n3Cc2cccc(Cl)c2)CC1 [Example T407, 1-(2-(3-chloro-4-(9-(3-chlorobenzyl)-6-(1-methylcyclopropoxy)-9H-purin-8-yl)phenoxy)ethyl)cyclopropane-1-carboxylic acid]
- IC50 (DLD-1 BRCA2−/− cells): 316 nM
- IC50 (DLD-1 cells): > 10000 nM

SMILES: Cc1ccnc(Cn2c(-c3ccc(C(=O)N4CCC(F)CC4)cc3Cl)nc3c(OC4(C)CC4)ncnc32)c1 [Example T419, (3-chloro-4-(6-(1-methylcyclopropoxy)-9-((4-methylpyridin-2-yl)methyl)-9H-purin-8-yl)phenyl)(4-fluoropiperidin-1-yl)methanone]
- IC50 (DLD-1 BRCA2−/− cells): 1000 nM
- IC50 (DLD-1 cells): > 10000 nM

SMILES: Cc1ccnc(Cn2c(-c3ccc(CC(=O)N4C[C@@H](O)[C@H](F)C4)cc3Cl)nc3c(OC4(C)CC4)ncnc32)c1 [Example T422, 2-(3-chloro-4-(6-(1-methylcyclopropoxy)-9-((4-methylpyridin-2-yl)methyl)-9H-purin-8-yl)phenyl)-1-((3R,4R)-3-fluoro-4-hydroxypyrrolidin-1-yl)ethan-1-one]
- IC50 (DLD-1 BRCA2−/− cells): 1000 nM
- IC50 (DLD-1 cells): > 10000 nM

SMILES: FC(F)(F)C1(Oc2ncnc3c2nc(-c2ccc(OCCN4CCNCC4)cc2Cl)n3Cc2ccccc2)COC1 [Example T424, 9-benzyl-8-(2-chloro-4-(2-(piperazin-1-yl)ethoxy)phenyl)-6-((3-(trifluoromethyl)oxetan-3-yl)oxy)-9H-purine]
- IC50 (DLD-1 BRCA2−/− cells): 2000 nM
- IC50 (DLD-1 cells): 10000 nM

SMILES: CC1(Oc2ncnc3c2nc(-c2ccc(OCCCN4CC(O)C4)cc2Cl)n3Cc2cc(C(F)(F)F)ccn2)CC1 [Example T425, 1-(3-(3-chloro-4-(6-(1-methylcyclopropoxy)-9-((4-(trifluoromethyl)pyridin-2-yl)methyl)-9H-purin-8-yl)phenoxy)propyl)azetidin-3-ol]
- IC50 (DLD-1 BRCA2−/− cells): 501 nM
- IC50 (DLD-1 cells): > 10000 nM

SMILES: Cc1ccnc(Cn2c(-c3ccc(C(=O)N4CC5CC(C4)N5)cc3Cl)nc3c(OC4(C)CC4)ncnc32)c1 [Example T427, (3,6-diazabicyclo[3.1.1]heptan-3-yl)(3-chloro-4-(6-(1-methylcyclopropoxy)-9-((4-methylpyridin-2-yl)methyl)-9H-purin-8-yl)phenyl)methanone]
- IC50 (DLD-1 BRCA2−/− cells): 7940 nM
- IC50 (DLD-1 cells): > 10000 nM

SMILES: Cc1ccnc(Cn2c(-c3ccc(C(=O)N4CC5(CNC5)C4)cc3Cl)nc3c(OC4(C)CC4)ncnc32)c1 [Example T428, (3-chloro-4-(6-(1-methylcyclopropoxy)-9-((4-methylpyridin-2-yl)methyl)-9H-purin-8-yl)phenyl)(2,6-diazaspiro[3.3]heptan-2-yl)methanone]
- IC50 (DLD-1 BRCA2−/− cells): > 10000 nM
- IC50 (DLD-1 cells): > 10000 nM

SMILES: Cc1ccnc(Cn2c(-c3ccc(C(=O)N4CC5(CCN5)C4)cc3Cl)nc3c(OC4(C)CC4)ncnc32)c1 [Example T429, (3-chloro-4-(6-(1-methylcyclopropoxy)-9-((4-methylpyridin-2-yl)methyl)-9H-purin-8-yl)phenyl)(1,6-diazaspiro[3.3]heptan-6-yl)methanone]
- IC50 (DLD-1 BRCA2−/− cells): 1260 nM
- IC50 (DLD-1 cells): > 10000 nM

SMILES: Cc1ccnc(Cn2c(-c3ccc(CC(=O)N4CCNC(=O)C4)cc3Cl)nc3c(OC4(C)CC4)ncnc32)c1 [Example T431, 4-(2-(3-chloro-4-(6-(1-methylcyclopropoxy)-9-((4-methylpyridin-2-yl)methyl)-9H-purin-8-yl)phenyl)acetyl)piperazin-2-one]
- IC50 (DLD-1 BRCA2−/− cells): 2510 nM
- IC50 (DLD-1 cells): > 10000 nM

SMILES: CC1(Oc2ncnc3c2nc(-c2ccc(OCCC(C)(C)C(=O)O)cc2Cl)n3Cc2cccc(Cl)c2)CC1 [Example T435, 4-(3-chloro-4-(9-(3-chlorobenzyl)-6-(1-methylcyclopropoxy)-9H-purin-8-yl)phenoxy)-2,2-dimethylbutanoic acid]
- IC50 (DLD-1 BRCA2−/− cells): 200 nM
- IC50 (DLD-1 cells): > 10000 nM

SMILES: CC1(Oc2ncnc3c2nc(-c2ccc(OCCCCCC(=O)O)cc2Cl)n3Cc2cccc(Cl)c2)CC1 [Example T437, 6-(3-chloro-4-(9-(3-chlorobenzyl)-6-(1-methylcyclopropoxy)-9H-purin-8-yl)phenoxy)hexanoic acid]
- IC50 (DLD-1 BRCA2−/− cells): 63.1 nM
- IC50 (DLD-1 cells): > 10000 nM

SMILES: CC1(Oc2ncnc3c2nc(-c2cccc(OCCCCCC(=O)O)c2Cl)n3Cc2cccc(Cl)c2)CC1 [Example T440, 6-(2-chloro-3-(9-(3-chlorobenzyl)-6-(1-methylcyclopropoxy)-9H-purin-8-yl)phenoxy)hexanoic acid]
- IC50 (DLD-1 BRCA2−/− cells): 25.1 nM
- IC50 (DLD-1 cells): > 10000 nM

SMILES: CC1(Oc2ncnc3c2nc(-c2ccc(OCCCCOCC(=O)O)cc2Cl)n3Cc2cccc(Cl)c2)CC1 [Example T445, 2-(4-(3-chloro-4-(9-(3-chlorobenzyl)-6-(1-methylcyclopropoxy)-9H-purin-8-yl)phenoxy)butoxy)acetic acid]
- IC50 (DLD-1 BRCA2−/− cells): 251 nM
- IC50 (DLD-1 cells): > 10000 nM

SMILES: CC1(Oc2ncnc3c2nc(-c2cccc(OCCCCOCC(=O)O)c2Cl)n3Cc2cccc(Cl)c2)CC1 [Example T448, 2-(4-(2-chloro-3-(9-(3-chlorobenzyl)-6-(1-methylcyclopropoxy)-9H-purin-8-yl)phenoxy)butoxy)acetic acid]
- IC50 (DLD-1 BRCA2−/− cells): 79.4 nM
- IC50 (DLD-1 cells): > 10000 nM

SMILES: CC1(Oc2ncnc3c2nc(-c2ccc(OCCCOCCC(=O)O)cc2Cl)n3Cc2cccc(Cl)c2)CC1 [Example T449, 3-(3-(3-chloro-4-(9-(3-chlorobenzyl)-6-(1-methylcyclopropoxy)-9H-purin-8-yl)phenoxy)propoxy)propanoic acid]
- IC50 (DLD-1 BRCA2−/− cells): 50.1 nM
- IC50 (DLD-1 cells): > 10000 nM

SMILES: CC1(Oc2ncnc3c2nc(-c2ccc(OCCOC(C)(C)C(=O)O)cc2Cl)n3Cc2cccc(Cl)c2)CC1 [Example T450, 2-(2-(3-chloro-4-(9-(3-chlorobenzyl)-6-(1-methylcyclopropoxy)-9H-purin-8-yl)phenoxy)ethoxy)-2-methylpropanoic acid]
- IC50 (DLD-1 BRCA2−/− cells): 200 nM
- IC50 (DLD-1 cells): > 10000 nM
